Here are results for 17 molecules from patent publication US20210395239A1 (Hoffmann-La Roche Inc., priority 2018, published 2021).

In the assay the target is T1, human TLR7 (Homo sapiens, UniProt Q9NYK1).
T1 construct: host or cells: HEK293 (HEK-Blue hTLR7)
T1 sequence (Q9NYK1 27-1049): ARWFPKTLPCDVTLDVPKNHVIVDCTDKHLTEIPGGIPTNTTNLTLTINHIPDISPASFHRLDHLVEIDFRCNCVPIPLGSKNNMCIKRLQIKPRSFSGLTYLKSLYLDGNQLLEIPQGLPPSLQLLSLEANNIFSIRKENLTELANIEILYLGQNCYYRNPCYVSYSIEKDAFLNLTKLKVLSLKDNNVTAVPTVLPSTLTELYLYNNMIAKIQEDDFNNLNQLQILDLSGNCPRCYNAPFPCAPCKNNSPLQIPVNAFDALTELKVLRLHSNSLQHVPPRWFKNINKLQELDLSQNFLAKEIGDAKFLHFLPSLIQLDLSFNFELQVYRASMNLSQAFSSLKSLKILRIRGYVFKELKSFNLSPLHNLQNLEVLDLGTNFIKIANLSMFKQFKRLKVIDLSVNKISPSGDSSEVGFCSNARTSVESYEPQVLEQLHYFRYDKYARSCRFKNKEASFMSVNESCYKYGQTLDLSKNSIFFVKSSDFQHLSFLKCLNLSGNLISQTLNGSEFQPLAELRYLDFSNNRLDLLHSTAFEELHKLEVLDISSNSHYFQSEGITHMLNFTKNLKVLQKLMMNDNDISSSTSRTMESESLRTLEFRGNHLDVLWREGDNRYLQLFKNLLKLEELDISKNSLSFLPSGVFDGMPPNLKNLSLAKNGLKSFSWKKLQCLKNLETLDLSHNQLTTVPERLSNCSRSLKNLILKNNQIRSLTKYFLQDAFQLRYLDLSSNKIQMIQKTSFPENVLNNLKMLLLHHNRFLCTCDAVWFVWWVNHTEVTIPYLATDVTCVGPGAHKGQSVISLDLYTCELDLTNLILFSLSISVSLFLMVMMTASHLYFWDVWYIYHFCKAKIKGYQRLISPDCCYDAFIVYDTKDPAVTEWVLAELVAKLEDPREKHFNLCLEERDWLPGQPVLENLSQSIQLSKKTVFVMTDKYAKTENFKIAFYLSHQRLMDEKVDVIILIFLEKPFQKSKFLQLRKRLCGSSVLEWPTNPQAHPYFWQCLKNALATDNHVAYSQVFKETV
As to the kind of experiment: HEK293-Blue-hTLR-7 cells assay (SEAP reporter, R848 stimulation). It counts as cell-based. The conditions noted are these: HEK293-Blue-hTLR7 cells, R848, 20 hrs; read-out: HEK/hTLR7 IC50. The source says: HEK293-Blue-hTLR-7 Cells Assay:
A stable HEK293-Blue-hTLR-7 cell line was purchased from InvivoGen (Cat. #: hkb-ht1r7, San Diego, Calif., USA). These cells were originally designed for studying the stimulation of human TLR7 by monitoring the activation of NF-κB. A SEAP (secreted embryonic alkaline phosphatase) reporter gene was placed under the control of the IFN-β minimal promoter fused to five NF-κB and AP-1-binding sites. The SEAP was induced by activating NF-κB and AP-1 via stimulating HEK-Blue hTLR7 cells with TLR7 ligands. Therefore the reporter expression was declined by TLR7 antagonist under the stimulation of a ligand, such as R848 (Resiquimod), for incubation of 20 hrs. The cell culture supernatant SEAP reporter activity was determined using QUANTI-Blue™ kit (Cat. #: rep-qb1, Invivogen, San Diego, Ca, USA) at a wavelength of 640 nm, a detection medium that turns purple or blue in the presence of alkaline phosphatase.
HEK293-Blue-hTLR7 cells were incubated at a density of […] cells/mL in a volume of 170 μL in a 96-well plate in Dulbecco's Modified Eagle's medium (DMEM) containing 4.5 g/L glucose, 50 U/mL penicillin, […], […], 2 mM L-glutamine, 10% (v/v) heat-inactivated fetal bovine serum with addition of 20 μL test compound in a serial dilution in the presence of final DMSO at 1% and 10 μL of 20 uM R848 in above DMEM, perform incubation under 37° C. in a CO2 incubator for 20 hrs. Then 20 μL of the supernatant from each well was incubated with 180 μL Quanti-blue substrate solution at 37° C. for 2 hrs and the absorbance was read at 620˜655 nm using a spectrophotometer. The signaling pathway that TLR7 activation leads to downstream NF-κB activation has been widely accepted, and therefore similar reporter assay was modified for evaluating TLR7 antagonist.
As to `[2H]c1ccc2c(N3C[C@H](CN4CC(c5ccc(N6CC(C)(N)C6)cc5)C4)O[C@H](C)C3)ccc(C#N)c2n1` [Example 141, 5-[(2S,6R)-2-[[3-[4-(3-amino-3-methyl-azetidin-1-yl)phenyl]azetidin-1-yl]methyl]-6-methyl-morpholin-4-yl]-2-deuterio-quinoline-8-carbonitrile], the IC50 came out at 4 nM.

For `[2H]c1ccc2c(N3C[C@H](CN4CCN(c5ncc(N6CC(C)(N)C6)cc5C)CC4)O[C@H](C)C3)ccc(C#N)c2n1` [Example 139, 5-[(2S,6R)-2-[[4-[5-(3-amino-3-methyl-azetidin-1-yl)-3-methyl-2-pyridyl]piperazin-1-yl]methyl]-6-methyl-morpholin-4-yl]-2-deuterio-quinoline-8-carbonitrile], the IC50 stood at 20 nM.

Take `[2H]c1ccc2c(N3C[C@H](CN4CC(c5cccc(N6CC(C)(N)C6)n5)C4)O[C@H](C)C3)ccc(C#N)c2n1` [Example 159, 5-[(2S,6R)-2-[[3-[6-(3-amino-3-methyl-azetidin-1-yl)-2-pyridyl]azetidin-1-yl]methyl]-6-methyl-morpholin-4-yl]-2-deuterio-quinoline-8-carbonitrile]: the IC50 stood at 30 nM.

Take `Cc1ccc(N2C[C@H](CN3CCN(c4ccnc(N5CCN[C@H](C)C5)n4)CC3)O[C@H](C)C2)c2nccnc12` [Example 128, (2R,6S)-2-methyl-6-[[4-[2-[(3R)-3-methylpiperazin-1-yl]pyrimidin-4-yl]piperazin-1-yl]methyl]-4-(8-methylquinoxalin-5-yl)morpholine]: the IC50 worked out at 30 nM.

Take `Cc1cc(N2CC(C)(N)C2)cnc1N1CCN(C[C@H]2CN(c3ccc(C#N)n4ncc(F)c34)C[C@@H](C)O2)CC1` [Example 148, 4-[(2S,6R)-2-[[4-[5-(3-amino-3-methyl-azetidin-1-yl)-3-methyl-2-pyridyl]piperazin-1-yl]methyl]-6-methyl-morpholin-4-yl]-3-fluoro-pyrazolo[1,5-a]pyridine-7-carbonitrile]: the IC50 was 56 nM.

With `[2H]c1ccc2c(N3C[C@H](CN4CC(c5cnc(N6CC(C)(N)C6)cc5C)C4)O[C@H](C)C3)ccc(C#N)c2n1` [Example 145, 5-[(2S,6R)-2-[[3-[6-(3-amino-3-methyl-azetidin-1-yl)-4-methyl-3-pyridyl]azetidin-1-yl]methyl]-6-methyl-morpholin-4-yl]-2-deuterio-quinoline-8-carbonitrile], the IC50 turned out to be 14 nM.

Take `Cc1ccc(N2C[C@H](CN3CCN(c4ccnc(N5CC(N)C5)n4)CC3)O[C@H](C)C2)c2nccnc12` [Example 130, 1-[4-[4-[[(2S,6R)-6-methyl-4-(8-methylquinoxalin-5-yl)morpholin-2-yl]methyl]piperazin-1-yl]pyrimidin-2-yl]azetidin-3-amine]: the IC50 stood at 16 nM.

For `[2H]c1ccc2c(N3C[C@H](CN4CCN(c5ccc(N6C[C@H]7C[C@@H]6CN7)nc5)CC4)O[C@H](C)C3)ccc(C#N)c2n1` [Example 153, 2-deuterio-5-[(2S,6R)-2-[[4-[6-[(1R,4R)-2,5-diazabicyclo[2.2.1]heptan-2-yl]-3-pyridyl]piperazin-1-yl]methyl]-6-methyl-morpholin-4-yl]quinoline-8-carbonitrile], the IC50 is 32 nM.

For `C[C@@H]1CN(c2ccc(C#N)c3ncccc23)C[C@H](CN2CCN(c3ncc(F)c(N4CCNCC4)n3)CC2)O1` [Example 94, 5-[(2S,6R)-2-[[4-(5-fluoro-4-piperazin-1-yl-pyrimidin-2-yl)piperazin-1-yl]methyl]-6-methyl-morpholin-4-yl]quinoline-8-carbonitrile], the IC50 was found to be 13 nM.

Consider `[2H]c1ccc2c(N3C[C@H](CN4CC(c5cnc(N6C[C@@H](N)[C@H](OC)C6)cc5C)C4)O[C@H](C)C3)ccc(C#N)c2n1` [Example 146, 5-[(2S,6R)-2-[[3-[6-[(3R,4R)-3-amino-4-methoxy-pyrrolidin-1-yl]-4-methyl-3-pyridyl]azetidin-1-yl]methyl]-6-methyl-morpholin-4-yl]-2-deuterio-quinoline-8-carbonitrile], for which the IC50 was 13 nM.

On to `[2H]c1ccc2c(N3C[C@H](CN4CCN(c5nc(C)cc(N6C[C@@H](N)[C@H](OC)C6)n5)CC4)O[C@H](C)C3)ccc(C#N)c2n1` [Example 144, 5-[(2S,6R)-2-[[4-[4-[(3R,4R)-3-amino-4-methoxy-pyrrolidin-1-yl]-6-methyl-pyrimidin-2-yl]piperazin-1-yl]methyl]-6-methyl-morpholin-4-yl]-2-deuterio-quinoline-8-carbonitrile], for which the IC50 was 11 nM.

With `CO[C@@H]1CN(c2nccc(N3CCN(C[C@H]4CN(c5ccc(C#N)c6ncccc56)C[C@@H](C)O4)CC3)n2)C[C@@H]1N` [Example 92, 5-[(2S,6R)-2-[[4-[2-[(3S,4R)-3-amino-4-methoxy-pyrrolidin-1-yl]pyrimidin-4-yl]piperazin-1-yl]methyl]-6-methyl-morpholin-4-yl]quinoline-8-carbonitrile], the IC50 is 5 nM.

With `C[C@@H]1CN(c2ccc(C#N)c3ncccc23)C[C@H](CN2CCN(c3cnc(N4CCNCC4)cn3)CC2)O1` [Example 6, 5-[(2R,6S)-2-methyl-6-[[4-(5-piperazin-1-ylpyrazin-2-yl)piperazin-1-yl]methyl]morpholin-4-yl]quinoline-8-carbonitrile], the IC50 is 51 nM.

In the case of `[2H]c1ccc2c(N3C[C@H](CN4CCN(c5ccc(N6C[C@@H]7C[C@H]6CN7)nc5)CC4)O[C@H](C)C3)ccc(C#N)c2n1` [Example 151, 2-deuterio-5-[(2S,6R)-2-[[4-[6-[(1S,4S)-2,5-diazabicyclo[2.2.1]heptan-2-yl]-3-pyridyl]piperazin-1-yl]methyl]-6-methyl-morpholin-4-yl]quinoline-8-carbonitrile], the IC50 came out at 35 nM.

In the case of `[2H]c1ccc2c(N3C[C@H](CN4CCN(c5cnc(N6CC(C)(N)C6)cc5C)CC4)O[C@H](C)C3)ccc(C#N)c2n1` [Example 133, 5-[(2S,6R)-2-[[4-[6-(3-amino-3-methyl-azetidin-1-yl)-4-methyl-3-pyridyl]piperazin-1-yl]methyl]-6-methyl-morpholin-4-yl]-2-deuterio-quinoline-8-carbonitrile], the IC50 turned out to be 41 nM.

Regarding `CO[C@@H]1CN(c2cc(C)nc(N3CCN(C[C@H]4CN(c5ccc(C#N)c6nccnc56)C[C@@H](C)O4)CC3)n2)C[C@@H]1N` [Example 120, 8-[(2S,6R)-2-[[4-[4-[(3S,4R)-3-amino-4-methoxy-pyrrolidin-1-yl]-6-methyl-pyrimidin-2-yl]piperazin-1-yl]methyl]-6-methyl-morpholin-4-yl]quinoxaline-5-carbonitrile], the IC50 came to 5 nM.

Turning to `[2H]c1ccc2c(N3C[C@H](CN4CCN(c5nc(C)cc(N6CC(C)(N)C6)n5)CC4)O[C@H](C)C3)ccc(C#N)c2n1` [Example 135, 5-[(2S,6R)-2-[[4-[4-(3-amino-3-methyl-azetidin-1-yl)-6-methyl-pyrimidin-2-yl]piperazin-1-yl]methyl]-6-methyl-morpholin-4-yl]-2-deuterio-quinoline-8-carbonitrile], the IC50 is 16 nM.
